Measured values reported in ChEMBL document CHEMBL1201862, “PubChem BioAssay data set” (2004).
Activity calls are given as the source filed them.

Legend:
[1] = system: Vero; assay: West Nile virus antiviral activity, cell-based, CPE readout (AID 1621); format: functional; conditions: Chlorocebus sabaeus
[2] = molecular target: T1, Ubiquitin-conjugating enzyme E2 N (Homo sapiens, UniProt P61088); format: functional;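 further: Dose-response confirmation in a TR-FRET assay detecting UBC13-driven polyubiquitin chain formation, inhibition measured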
T1 sequence (P61088 whole entry): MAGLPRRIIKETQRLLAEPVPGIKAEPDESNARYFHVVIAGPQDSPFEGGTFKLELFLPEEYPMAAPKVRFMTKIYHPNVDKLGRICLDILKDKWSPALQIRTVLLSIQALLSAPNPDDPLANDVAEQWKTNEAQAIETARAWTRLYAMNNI

[3] = A Cell Based Secondary Assay To Explore Cytotoxicity of Compounds that Sensitize Mycobacterium Tuberculosis to Beta-Lactam Antibiotics.; format: functional
[4] = molecular target: Peroxisome proliferator-activated receptor gamma/Nuclear receptor coactivator 2 (Homo sapiens, UniProt P37231); format: functional;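 further: agonist potency for raising coactivator recruitment to the receptor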
[5] = molecular target: Peroxisome proliferator-activated receptor gamma/Nuclear receptor coactivator 1 (Homo sapiens, UniProt P37231); format: functional;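 further: agonist potency as compounds enhance coactivator SRC-1 recruitment to PPARgamma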
[6] = molecular target: Peroxisome proliferator-activated receptor gamma/Nuclear receptor coactivator 3 (Homo sapiens, UniProt P37231); format: functional;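 further: agonist potency for raising coactivator recruitment to the receptor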
[7] = molecular target: NS3 (Hepatitis C virus, UniProt A3EZJ3); assay: PubChem AID 2173; set-up: species or system Hepacivirus hominis
[8] = molecular target: T2, Neuropeptide Y receptor type 2 (Homo sapiens, UniProt P49146); format: functional, cell-based;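 further: HEK293 cells expressing the receptor and a CNG channel; stimulus was NPY near EC95 followed by isoproterenol to raise cAMP; antagonist potency measured as restoring cAMP signal that NPY suppresses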
T2 sequence (P49146 whole entry): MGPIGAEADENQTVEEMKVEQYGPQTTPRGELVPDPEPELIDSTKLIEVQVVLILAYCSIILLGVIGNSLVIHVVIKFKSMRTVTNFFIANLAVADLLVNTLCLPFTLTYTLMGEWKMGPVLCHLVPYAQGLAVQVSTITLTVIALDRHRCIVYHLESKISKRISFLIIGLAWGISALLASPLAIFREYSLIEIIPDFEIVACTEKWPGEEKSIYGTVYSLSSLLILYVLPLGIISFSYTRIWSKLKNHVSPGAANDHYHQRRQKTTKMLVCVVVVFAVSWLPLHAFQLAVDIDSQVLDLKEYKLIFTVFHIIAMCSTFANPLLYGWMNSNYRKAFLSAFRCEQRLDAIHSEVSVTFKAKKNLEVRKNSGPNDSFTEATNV

[9] = molecular target: T3, Neuropeptide Y receptor type 1 (Homo sapiens, UniProt P25929); format: functional;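 further: HEK293 cells with a CNG channel challenged with NPY then isoproterenol; potency as antagonist that reverses NPY suppression of cAMP signal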
T3 sequence (P25929 whole entry): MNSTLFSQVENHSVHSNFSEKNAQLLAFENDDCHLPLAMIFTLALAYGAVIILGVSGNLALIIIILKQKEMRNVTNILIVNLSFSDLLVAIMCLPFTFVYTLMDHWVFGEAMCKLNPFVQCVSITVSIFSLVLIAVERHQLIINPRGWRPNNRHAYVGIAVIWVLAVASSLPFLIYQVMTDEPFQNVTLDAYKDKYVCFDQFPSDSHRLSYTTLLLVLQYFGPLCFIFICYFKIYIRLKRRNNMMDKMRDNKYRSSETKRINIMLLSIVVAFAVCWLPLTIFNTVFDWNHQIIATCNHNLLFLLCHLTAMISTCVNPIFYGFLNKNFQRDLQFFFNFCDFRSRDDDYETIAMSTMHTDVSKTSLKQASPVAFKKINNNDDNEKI

[10] = molecular target: Glyceraldehyde-3-phosphate dehydrogenase (Homo sapiens, UniProt P04406)
[11] = molecular target: T4, Alkaline phosphatase, tissue-nonspecific isozyme (Homo sapiens, UniProt P05186); assay: human TNAP enzyme inhibitors, SAR follow-up, biochemical, luminescent, dose response (AID 1056)
T4 sequence (P05186 whole entry): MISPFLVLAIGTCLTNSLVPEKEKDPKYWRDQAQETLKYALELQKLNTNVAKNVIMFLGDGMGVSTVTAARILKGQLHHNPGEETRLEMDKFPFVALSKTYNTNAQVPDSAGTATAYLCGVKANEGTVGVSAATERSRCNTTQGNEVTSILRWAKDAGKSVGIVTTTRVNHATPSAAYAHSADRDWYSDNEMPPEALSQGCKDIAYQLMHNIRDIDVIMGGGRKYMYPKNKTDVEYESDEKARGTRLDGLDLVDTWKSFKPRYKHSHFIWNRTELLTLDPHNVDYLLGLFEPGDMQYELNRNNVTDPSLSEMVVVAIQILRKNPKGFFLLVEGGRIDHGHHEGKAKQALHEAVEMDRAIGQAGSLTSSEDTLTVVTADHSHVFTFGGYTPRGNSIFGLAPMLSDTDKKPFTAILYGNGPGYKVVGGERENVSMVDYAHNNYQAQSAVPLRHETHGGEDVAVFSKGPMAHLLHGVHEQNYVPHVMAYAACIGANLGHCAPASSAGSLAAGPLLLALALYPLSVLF

[12] = molecular target: Heat shock 70 kDa protein 1A (Homo sapiens, UniProt P0DMV8); assay: Hsp70 inhibitors, SAR follow-up, biochemical, fluorescence polarization (AID 1072)
[13] = molecular target: Heat shock cognate 71 kDa protein (Homo sapiens, UniProt P11142); assay: In Vitro Hsc70 Dose Response Fluorescence Polarization Assay. [Related pubchem assays: 1072 ]
[14] = system: HT-1080; assay: cytotoxicity in HT1080 fibrosarcoma cells, cell-based, fluorescence readout (AID 620); format: functional; conditions: Homo sapiens
[15] = molecular target: Luciferin 4-monooxygenase (Photinus pyralis, UniProt P08659); assay: Counter Screen for Luciferase-based Assay Positives. [Related pubchem assays: 620, 618, 411 ]
[16] = molecular target: G-protein coupled receptor 55 (Homo sapiens, UniProt Q9Y2T6); assay: GPR55 agonists via beta-arrestin recruitment, primary screen, imaging, U2OS cells, beta-arrestin-GFP redistribution (AID 1961); format: functional
[17] = inhibitors of Bluetongue virus cytopathic effect, confirmation, arbovirus, BSR cells (AID 1250); format: functional;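 further: protection from viral cytopathic effect measured as cell viability by ATP luminescence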
[18] = molecular target: T4, Alkaline phosphatase, tissue-nonspecific isozyme
[19] = molecular target: Melanin-concentrating hormone receptor 1 (Homo sapiens, UniProt Q99705); assay: Fluorescence-based counterscreen for antagonists of the G-protein coupled receptor 7 (GPR7): cell-based high throughput dose response assay to identify antagonists of the melanin-concentrating hormone receptor 1 (MCHR1).; format: functional
[20] = molecular target: Peroxisome proliferator-activated receptor gamma/Nuclear receptor corepressor 2 (Homo sapiens, UniProt P37231+Q9Y618); format: functional
[21] = molecular target: Photoreceptor-specific nuclear receptor (Homo sapiens, UniProt Q9Y5X4); format: functional;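 further: potency for compounds that break the NR2E3 corepressor complex and count as activators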
[22] = molecular target: Heat shock protein HSP 90-alpha (Homo sapiens, UniProt P07900); format: functional, organism-based
[23] = molecular target: Protein-tyrosine kinase 2-beta (Homo sapiens, UniProt Q14289);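 further: potency of inhibitors of PYK2 kinase phosphorylation of poly-GT substrate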
[24] = growth suppression of PTEN-null colon cells, dose response, cell-based, HCT116 PTEN knockout (AID 1047); format: functional;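 further: HCT116 colon tumor cells with PTEN knocked out; cells exposed to compound for 60 hours before readout; potency for loss of cell viability measured by luminescence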
[25] = growth suppression of beta-catenin-knockout colon cells, dose response, cell-based, HCT116, human colon tumor (AID 1045); format: functional;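 further: HCT116 colon tumor cells with beta catenin knocked out; cells exposed to compound for 60 hours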
[26] = molecular target: Mitogen-activated protein kinase 10 (Homo sapiens, UniProt P53779); assay: Dose response biochemical screening assay for inhibitors of c-Jun N-Terminal Kinase 3 (JNK3). [Related pubchem assays: 746 ]
[27] = molecular target: T5, Dual specificity protein phosphatase 6 (Rattus norvegicus, UniProt Q64346); format: functional
T5 sequence (Q64346 whole entry): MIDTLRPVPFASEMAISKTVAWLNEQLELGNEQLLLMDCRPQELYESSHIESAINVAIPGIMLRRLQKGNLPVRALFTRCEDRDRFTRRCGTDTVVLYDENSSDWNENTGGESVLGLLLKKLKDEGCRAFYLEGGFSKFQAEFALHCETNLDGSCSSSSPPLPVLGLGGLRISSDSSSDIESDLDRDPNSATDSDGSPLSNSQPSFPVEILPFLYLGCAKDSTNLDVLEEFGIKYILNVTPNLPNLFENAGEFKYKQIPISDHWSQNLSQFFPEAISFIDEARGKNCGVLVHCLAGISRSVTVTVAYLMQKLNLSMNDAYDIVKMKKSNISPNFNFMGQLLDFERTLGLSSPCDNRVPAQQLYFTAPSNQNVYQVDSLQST

[28] = molecular target: T6, Tyrosine-protein phosphatase non-receptor type 7 (Homo sapiens, UniProt P35236); format: functional
T6 sequence (P35236 whole entry): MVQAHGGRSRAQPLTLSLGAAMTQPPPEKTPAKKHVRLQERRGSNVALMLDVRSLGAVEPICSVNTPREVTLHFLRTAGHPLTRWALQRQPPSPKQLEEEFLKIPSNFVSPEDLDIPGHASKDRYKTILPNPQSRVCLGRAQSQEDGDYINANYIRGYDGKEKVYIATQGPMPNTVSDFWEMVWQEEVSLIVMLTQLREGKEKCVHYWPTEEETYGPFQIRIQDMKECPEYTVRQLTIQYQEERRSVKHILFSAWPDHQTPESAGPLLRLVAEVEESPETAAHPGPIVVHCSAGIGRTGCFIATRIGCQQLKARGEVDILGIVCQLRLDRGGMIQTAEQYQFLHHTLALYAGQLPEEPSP

[29] = molecular target: T5, Dual specificity protein phosphatase 6

Luciferin 4-monooxygenase, sequence (P08659 whole entry): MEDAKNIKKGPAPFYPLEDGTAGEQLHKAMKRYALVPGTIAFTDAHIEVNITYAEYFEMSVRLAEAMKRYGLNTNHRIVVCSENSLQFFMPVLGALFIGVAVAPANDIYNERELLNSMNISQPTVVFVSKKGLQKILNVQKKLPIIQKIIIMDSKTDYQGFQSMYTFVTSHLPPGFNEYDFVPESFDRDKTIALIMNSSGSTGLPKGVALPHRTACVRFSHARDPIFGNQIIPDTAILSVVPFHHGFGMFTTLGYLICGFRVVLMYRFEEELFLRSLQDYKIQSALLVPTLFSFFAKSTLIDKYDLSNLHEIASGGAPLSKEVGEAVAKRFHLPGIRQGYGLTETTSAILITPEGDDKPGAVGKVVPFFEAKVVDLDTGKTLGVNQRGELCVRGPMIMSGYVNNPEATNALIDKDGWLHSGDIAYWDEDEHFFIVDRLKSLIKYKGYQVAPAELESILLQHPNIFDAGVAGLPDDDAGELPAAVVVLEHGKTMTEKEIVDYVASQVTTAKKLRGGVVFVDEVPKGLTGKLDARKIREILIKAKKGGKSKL
Heat shock cognate 71 kDa protein, sequence (P11142 whole entry): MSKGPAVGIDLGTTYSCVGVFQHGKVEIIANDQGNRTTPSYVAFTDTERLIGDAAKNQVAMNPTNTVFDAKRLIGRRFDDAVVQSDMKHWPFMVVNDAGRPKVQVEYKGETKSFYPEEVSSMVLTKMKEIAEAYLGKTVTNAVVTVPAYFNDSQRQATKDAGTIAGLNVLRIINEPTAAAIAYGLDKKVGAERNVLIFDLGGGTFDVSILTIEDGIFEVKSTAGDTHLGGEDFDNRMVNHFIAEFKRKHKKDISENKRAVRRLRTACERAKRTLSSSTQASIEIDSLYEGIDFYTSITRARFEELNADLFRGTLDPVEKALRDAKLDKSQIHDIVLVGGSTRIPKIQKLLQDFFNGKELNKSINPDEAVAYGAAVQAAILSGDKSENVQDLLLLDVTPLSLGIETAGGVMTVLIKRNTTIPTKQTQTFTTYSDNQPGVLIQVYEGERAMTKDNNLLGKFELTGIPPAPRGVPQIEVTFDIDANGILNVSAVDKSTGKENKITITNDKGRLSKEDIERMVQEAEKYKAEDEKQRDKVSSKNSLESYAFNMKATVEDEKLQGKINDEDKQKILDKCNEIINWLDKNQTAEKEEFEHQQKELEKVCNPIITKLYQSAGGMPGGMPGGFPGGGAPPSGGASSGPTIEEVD
Heat shock 70 kDa protein 1A, sequence (P0DMV8 whole entry): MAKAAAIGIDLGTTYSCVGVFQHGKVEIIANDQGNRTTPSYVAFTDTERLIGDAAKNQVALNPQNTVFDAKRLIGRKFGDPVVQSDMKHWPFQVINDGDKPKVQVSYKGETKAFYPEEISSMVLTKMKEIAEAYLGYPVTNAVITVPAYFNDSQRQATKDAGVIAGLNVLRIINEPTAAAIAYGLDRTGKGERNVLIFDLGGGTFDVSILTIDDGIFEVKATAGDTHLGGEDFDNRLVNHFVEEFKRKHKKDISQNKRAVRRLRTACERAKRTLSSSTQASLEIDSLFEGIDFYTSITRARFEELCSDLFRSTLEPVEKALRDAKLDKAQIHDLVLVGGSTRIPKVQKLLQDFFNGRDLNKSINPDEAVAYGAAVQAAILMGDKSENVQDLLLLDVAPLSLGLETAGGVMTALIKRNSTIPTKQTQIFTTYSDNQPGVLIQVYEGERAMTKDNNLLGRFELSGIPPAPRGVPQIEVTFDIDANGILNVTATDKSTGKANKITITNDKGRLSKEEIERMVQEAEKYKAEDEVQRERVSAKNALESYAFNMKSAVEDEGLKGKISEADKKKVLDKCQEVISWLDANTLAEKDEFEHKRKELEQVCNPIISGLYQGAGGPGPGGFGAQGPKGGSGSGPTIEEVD
NS3, sequence (A3EZJ3 whole entry): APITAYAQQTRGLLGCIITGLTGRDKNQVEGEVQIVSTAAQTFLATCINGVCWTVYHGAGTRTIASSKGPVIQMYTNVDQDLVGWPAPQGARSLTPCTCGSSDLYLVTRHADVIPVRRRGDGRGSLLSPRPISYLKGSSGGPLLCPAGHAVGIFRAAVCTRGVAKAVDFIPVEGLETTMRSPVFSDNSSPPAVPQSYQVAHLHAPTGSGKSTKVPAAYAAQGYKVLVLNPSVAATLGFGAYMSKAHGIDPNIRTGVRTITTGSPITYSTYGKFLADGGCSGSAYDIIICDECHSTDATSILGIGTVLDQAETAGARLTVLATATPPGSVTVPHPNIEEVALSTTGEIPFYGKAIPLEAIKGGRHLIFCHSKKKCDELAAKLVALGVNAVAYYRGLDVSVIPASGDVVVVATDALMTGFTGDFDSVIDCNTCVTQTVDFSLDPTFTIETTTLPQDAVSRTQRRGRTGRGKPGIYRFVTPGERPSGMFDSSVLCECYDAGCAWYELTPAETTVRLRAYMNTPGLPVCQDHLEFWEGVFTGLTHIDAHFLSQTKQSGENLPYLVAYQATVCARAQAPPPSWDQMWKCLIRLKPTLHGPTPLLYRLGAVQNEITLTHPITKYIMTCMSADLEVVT
Peroxisome proliferator-activated receptor gamma/Nuclear receptor coactivator 1, sequence (P37231 whole entry): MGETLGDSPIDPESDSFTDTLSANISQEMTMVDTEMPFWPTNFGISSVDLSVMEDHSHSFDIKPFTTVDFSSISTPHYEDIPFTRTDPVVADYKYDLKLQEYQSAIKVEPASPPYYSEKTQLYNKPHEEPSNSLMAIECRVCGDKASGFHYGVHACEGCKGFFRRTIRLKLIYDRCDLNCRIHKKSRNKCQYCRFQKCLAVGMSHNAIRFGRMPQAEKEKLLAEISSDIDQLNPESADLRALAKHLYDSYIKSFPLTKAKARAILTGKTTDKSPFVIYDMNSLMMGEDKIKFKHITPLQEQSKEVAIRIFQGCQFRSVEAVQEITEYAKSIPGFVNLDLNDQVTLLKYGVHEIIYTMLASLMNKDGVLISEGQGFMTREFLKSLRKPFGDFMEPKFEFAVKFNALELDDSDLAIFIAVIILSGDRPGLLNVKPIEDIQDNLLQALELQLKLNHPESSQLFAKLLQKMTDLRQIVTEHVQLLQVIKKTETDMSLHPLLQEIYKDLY
Peroxisome proliferator-activated receptor gamma/Nuclear receptor coactivator 1, sequence (Q15788 whole entry, further chain): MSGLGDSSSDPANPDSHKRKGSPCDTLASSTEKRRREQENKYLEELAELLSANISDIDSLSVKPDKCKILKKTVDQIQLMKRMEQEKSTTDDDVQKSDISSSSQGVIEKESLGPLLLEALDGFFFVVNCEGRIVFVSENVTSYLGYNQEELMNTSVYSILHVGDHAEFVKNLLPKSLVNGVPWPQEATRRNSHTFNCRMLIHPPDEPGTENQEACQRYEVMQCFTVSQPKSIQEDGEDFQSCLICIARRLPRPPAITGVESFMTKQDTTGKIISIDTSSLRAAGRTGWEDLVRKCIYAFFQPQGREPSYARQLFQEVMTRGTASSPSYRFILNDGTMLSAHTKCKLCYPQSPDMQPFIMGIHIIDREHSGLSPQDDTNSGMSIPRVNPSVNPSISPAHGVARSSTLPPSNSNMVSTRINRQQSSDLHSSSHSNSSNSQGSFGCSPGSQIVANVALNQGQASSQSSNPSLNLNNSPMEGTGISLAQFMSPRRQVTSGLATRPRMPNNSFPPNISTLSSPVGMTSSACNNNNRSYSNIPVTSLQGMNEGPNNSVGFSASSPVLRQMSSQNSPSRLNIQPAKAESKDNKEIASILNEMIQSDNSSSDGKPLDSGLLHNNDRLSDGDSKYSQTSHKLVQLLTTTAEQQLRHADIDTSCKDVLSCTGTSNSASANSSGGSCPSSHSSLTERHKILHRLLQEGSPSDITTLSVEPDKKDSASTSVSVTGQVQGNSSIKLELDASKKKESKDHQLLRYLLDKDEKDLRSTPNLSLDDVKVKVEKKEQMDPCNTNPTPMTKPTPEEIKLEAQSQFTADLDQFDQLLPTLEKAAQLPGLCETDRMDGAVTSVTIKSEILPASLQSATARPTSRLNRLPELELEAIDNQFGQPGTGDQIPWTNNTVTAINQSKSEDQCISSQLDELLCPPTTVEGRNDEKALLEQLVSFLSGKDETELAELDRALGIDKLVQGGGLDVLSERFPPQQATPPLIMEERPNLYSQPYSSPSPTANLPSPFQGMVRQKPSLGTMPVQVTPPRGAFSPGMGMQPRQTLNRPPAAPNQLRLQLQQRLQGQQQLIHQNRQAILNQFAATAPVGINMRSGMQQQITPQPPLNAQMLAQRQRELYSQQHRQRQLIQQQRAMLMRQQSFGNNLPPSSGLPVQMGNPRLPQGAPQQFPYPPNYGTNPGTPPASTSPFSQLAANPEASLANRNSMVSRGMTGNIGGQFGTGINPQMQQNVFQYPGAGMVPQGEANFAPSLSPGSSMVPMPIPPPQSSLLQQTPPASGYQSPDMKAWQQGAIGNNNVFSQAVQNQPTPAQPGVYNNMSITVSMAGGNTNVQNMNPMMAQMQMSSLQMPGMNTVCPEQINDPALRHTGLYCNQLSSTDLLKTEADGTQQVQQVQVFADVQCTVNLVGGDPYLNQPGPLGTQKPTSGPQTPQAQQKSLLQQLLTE
Glyceraldehyde-3-phosphate dehydrogenase, sequence (P04406 whole entry): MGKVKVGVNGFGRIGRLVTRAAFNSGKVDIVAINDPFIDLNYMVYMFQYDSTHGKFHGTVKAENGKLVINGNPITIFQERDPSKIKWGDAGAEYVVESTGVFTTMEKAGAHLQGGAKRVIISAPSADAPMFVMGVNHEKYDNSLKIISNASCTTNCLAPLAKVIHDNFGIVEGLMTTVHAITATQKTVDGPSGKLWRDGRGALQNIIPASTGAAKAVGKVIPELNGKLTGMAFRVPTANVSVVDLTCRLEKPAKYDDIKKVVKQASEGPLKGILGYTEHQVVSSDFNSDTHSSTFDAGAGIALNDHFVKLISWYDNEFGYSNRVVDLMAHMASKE

**Q.** Which results are given for `CCN(CC)CCC(c1cc(OC)c(OC)c(OC)c1)c1c(OC)cc(OC)c2c(-c3ccccc3)cc(=O)oc12` (centres undefined)?
**A.** IC50 [1]: 30.8 µM (active); IC50 [2]: > 20 µM (inactive)

**Q.** Which CC50 [3] does the source give for `O=C1NC(=S)NC(=O)C1=NNc1ccc2c(c1)OCCO2` here?
**A.** > 40 µM (active)

**Q.** For `Cc1cc(/C=C2/NC(=O)N(Cc3ccccc3F)C2=O)c(C)n1C`, which EC50 [4] is on record?
**A.** > 79.4 µM (not active)

**Q.** And the EC50 [5]?
**A.** > 79.4 µM (not active)

**Q.** And the EC50 [6]?
**A.** > 79.4 µM (not active)

**Q.** With `CC1(C)Cc2c(C#N)c(NCCc3ccccc3)nc(-c3ccco3)c2CO1` as the compound, how does the IC50 [7] read?
**A.** 35.3 µM (not active)

**Q.** With `CCCCCC(=O)NC(=S)Nc1ccc(Br)cc1C` as the compound, how does the IC50 [8] read?
**A.** 6.11 µM (active)

**Q.** What about the IC50 [9] of the same compound?
**A.** 7.66 µM (active)

**Q.** Which IC50 [10] does the source give for `O=C(CSc1nnc[nH]1)NCCOc1ccccc1` here?
**A.** > 100 µM (not active)

**Q.** And the IC50 [11]?
**A.** 28.8 µM (active)

**Q.** What about the IC50 [12] of the same compound?
**A.** > 100 µM (not active)

**Q.** And the IC50 [13]?
**A.** > 100 µM (not active)

**Q.** Which results are given for `COc1ccc(C(=O)Nn2c(SCC(=O)N3CCC(C)CC3)nc3ccccc3c2=O)cc1`?
**A.** EC50 [14]: > 50 µM (not active); EC50 [15]: < 0.2 µM (active)

**Q.** What does the source list for `COc1ccccc1-c1cc(C(=O)N2CCc3ccccc3C2)c2ccccc2n1`?
**A.** EC50 [16]: 3.06 µM (active); IC50 [17]: 28.8 µM (active)

**Q.** For `O=C(Nc1sc2c(c1C(=O)O)CCCCC2)c1ccccc1`, which IC50 [17] is on record?
**A.** 28.4 µM (active)

**Q.** With `CCOC(=O)CS(=O)(=O)c1ccc(O)cc1` as the compound, how does the EC50 [4] read?
**A.** > 79.4 µM (not active)

**Q.** And the EC50 [5]?
**A.** > 79.4 µM (not active)

**Q.** What about the EC50 [6] of the same compound?
**A.** > 79.4 µM (not active)

**Q.** Which EC50 [14] does the source give for `CN(C(=O)c1ccco1)c1nc2c(s1)CCCC2` here?
**A.** > 50 µM (not active)

**Q.** What about the EC50 [15] of the same compound?
**A.** > 100 µM (not active)

**Q.** For `Cc1ccc(Cl)cc1-n1ncc2c(NNC(=O)c3ccco3)ncnc21`, which EC50 [18] is on record?
**A.** 63.2 µM (not active)

**Q.** With `O=C(c1ccc(Cl)c(S(=O)(=O)N2CCCCCC2)c1)N1CCCCC1` as the compound, how does the IC50 [19] read?
**A.** 32.7 µM (not active)

**Q.** With `CCN(CC)CCN1C(=O)C(O)=C(C(=O)c2cc3ccccc3o2)C1c1cccnc1` (centres undefined) as the compound, how does the IC50 [20] read?
**A.** 2.95 µM (active)

**Q.** And the IC50 [21]?
**A.** > 39.8 µM (not active)

**Q.** For `Cc1cccc(CSC2=NCCN2C(=O)c2ccc(Br)o2)c1`, which IC50 [8] is on record?
**A.** 12.8 µM (not active)

**Q.** And the IC50 [9]?
**A.** < 12 µM (not active)

**Q.** For `CN1CCc2nc3sc(C(=O)C45CC6CC(CC(C6)C4)C5)c(N)c3cc2C1`, which AC50 [22] is on record?
**A.** 1.82 µM (active)

**Q.** And the IC50 [23]?
**A.** 13.8 µM (not active)

**Q.** And the EC50 [24]?
**A.** 20.5 µM (active)

**Q.** And the EC50 [25]?
**A.** 27.4 µM (active)

**Q.** With `CCOc1ccc(NC(=O)c2c(NC(=O)CN3CCN(C)CC3)sc3c2CCC3)cc1` as the compound, how does the IC50 [1] read?
**A.** 18.3 µM (active)

**Q.** For `Cc1ccccc1OCC(=O)N/N=C/c1cccc(Oc2ccc([N+](=O)[O-])cc2[N+](=O)[O-])c1`, which CC50 [3] is on record?
**A.** 33.9 µM (active)

**Q.** Which EC50 [18] does the source give for `Cn1c(=O)c2c(nc(N/N=C/c3ccc(OC(=O)c4ccco4)cc3)n2Cc2ccccc2)n(C)c1=O` here?
**A.** > 100 µM (not active)

**Q.** With `COc1ccc(/C=N/n2c(N)nc3ccccc32)cc1OC` as the compound, how does the IC50 [26] read?
**A.** 16.6 µM (not active)

**Q.** With `CCCCCOc1ccc(/C=c2\sc3nc(=O)c(-c4ccccc4)nn3c2=O)cc1OC` as the compound, how does the IC50 [7] read?
**A.** > 36.3 µM (not active)

**Q.** With `O=C(O)C(O)c1ccccc1` (centres undefined) [MANDELIC ACID] as the compound, how does the IC50 [27] read?
**A.** > 100 µM (inactive)

**Q.** What about the IC50 [28] of the same compound?
**A.** > 100 µM (not active)

**Q.** What about the IC50 [10] of the same compound?
**A.** > 100 µM (not active)

**Q.** And the IC50 [12]?
**A.** > 100 µM (not active)

**Q.** And the IC50 [29]?
**A.** > 100 µM (inactive)

**Q.** And the IC50 [13]?
**A.** > 100 µM (not active)
